Reference: patent publication US20200190101A1, “Composition Containing Novel Glutamic Acid Derivative And Block Copolymer, And Use Thereof” (Nippon Kayaku Kabushiki Kaisha, priority 2015, published 2020)

Experiments:
[1] = system: OS-RC-2 cells having high GGT activity; assay: cells; assay type: cell-based, human; settings: Homo sapiens; OS-RC-2 cells, 10 μM, 6 hours exposure then 3 days incubation; read-out: Cell proliferation inhibitory activity
Description: After the cells were incubated for 6 hours, the interior of the wells was washed, and after the cells were further incubated for 3 days, the cells were immobilized with methanol and stained using Methylene Blue dye. After staining, the dye was extracted with a 0.3% aqueous solution of hydrochloric acid was extracted, and the light absorbance at 660 nm was measured. For the light absorbance thus obtained, the cell proliferation suppressive activity was evaluated based on the reduction ratio for the light absorbance measured from cells to which the compound was not added.
By a similar operation, the cell proliferation suppressive activity was evaluated from the light absorbance, using doxorubicin that was not converted to a glutamic acid derivative. The results are shown in FIG. 1 (OS-RC-2 cells having high GGT activity) and FIG. 2 (SK-OV-3 cells having low GGT activity).
The cell proliferation inhibitory activity of the EHC-bonded glutamic acid derivative according to Synthesis Example 6 was evaluated using OS-RC-2 cells (RIKEN BioResource Center), which are known to have high GGT activity, and SK-OV-3 cells (American Type Culture Collection), which are known to have low GGT activity.
On a 96-well plate, OS-RC-2 cells having high GGT activity and SK-OV-3 cells having low GGT activity were each inoculated in an amount of 4,000 cells/well and were incubated for one day at 37° C. and 5% CO2, and then the EHC prodrug according to Synthesis Example 6 was added to the cells at a final concentration of 0.0001 to 1 μM. After the cells were incubated for 6 hours, the interior of the wells was washed, and the cells were further incubated for 3 days. After the incubation, the cells were immobilized with methanol and were stained using Methylene Blue dye. After staining, the dye was extracted with a 0.3% aqueous solution of hydrochloric acid, and the light absorbance at 660 nm was measured. The cell proliferation suppressive activity was evaluated based on the reduction ratio for the light absorbance thus obtained, with respect to the light absorbance measured from cells to which the compound was not added.
By a similar operation, EHC, which was an active ingredient of Synthesis Example 6, was used without modification, and the cell proliferation suppressive activity was evaluated from the light absorbance.

[2] = Test on pharmacokinetics of Synthesis Example 1 (tissue concentrations, OS-RC-2 tumor-bearing mice); assay type: in vivo, SCID mice; settings: for Unchanged drug concentration: value after 5 minutes, 5 mg/kg in terms of doxorubicin i.v.
Description: Human renal cell cancer OS-RC-2 tumors that had been subcutaneously subcultured in SCID mice were produced into blocks that measured about 2 mm on each side, and the blocks were subcutaneously transplanted into SCID mice using a trocar.
At time points of 5 minutes, 3 hours, and 24 hours after the administration, various tissues such as blood plasma, heart, liver, bone marrow, and tumor were collected under ether anesthesia.

[3] = system: γ-glutamyl transpeptidase (GGT); assay: γ-Glutamyl transpeptidase (GGT) enzyme recognition test; assay type: biochemical; settings: 2 mM PBS solution + 2 U/mL GGT solution, 37° C.; for Residual ratio of unchanged drug: HPLC
Description: To 0.150 mL of this doxorubicin-bonded glutamic acid derivative (prodrug) PBS solution, 0.150 mL of a 2 U/mL GGT solution obtained by dissolving GGT (0.22 mg, 8 U/mg) (Sigma-Aldrich Company) in PBS (0.880 mL) was added, and the mixture was allowed to react at 37° C.
The reaction liquid was analyzed by HPLC, and thus the residual ratio of the doxorubicin-bonded glutamic acid derivative (prodrug) and the production ratio of doxorubicin were determined.
To 0.100 mL of the doxorubicin-bonded glutamic acid derivative PBS solution, 0.100 mL of a 2 U/mL GGT solution obtained by dissolving GGT (0.38 mg, 8 U/mg) (Sigma-Aldrich Company) in PBS (1.520 mL) was added, and the mixture was allowed to react at 37° C. […]

[4] = system: OS-RC-2 cells having high GGT activity; assay type: cell-based, human; settings: GGsTop 10 μM, compound 0.039 to 10 μM
Description: OS-RC-2 cells were inoculated by a method similar to that of Test Example 3. […] After the cells were incubated for 6 hours, the interior of the wells was washed, and after the cells were further incubated for 3 days, the cell proliferation suppressive activity was evaluated by a method similar to that of Test Example 3.
By a similar operation, the cell proliferation suppressive activity was evaluated using doxorubicin that was not glutamic acid-derivatized, from the light absorbance of the compound.
The GGT activity dependency of the cell proliferation inhibitory activity of the EHC-bonded glutamic acid derivative according to Synthesis Example 6 was evaluated using OS-RC-2 cells having high GGT activity.
OS-RC-2 cells were inoculated by a method similar to that of Test Example 10. After the cells were incubated for one day, GGsTop (Wako Pure Chemical Industries, Ltd.), which is a GGT inhibitor, was added to the cells at a final concentration of 10 μM, and the cells were incubated for one hour. Subsequently, the EHC-bonded glutamic acid derivative according to Synthesis Example 6 was added to the cells at a final concentration of 0.0001 to 1 μM. After the cells were incubated for 6 hours, the interior of the wells was washed, and after the cells were incubated for 3 days, the cell proliferation suppressive activity was evaluated by a method similar to that of Test Example 10.
By a similar operation, the cell proliferation suppressive activity was evaluated using EHC, which is the active ingredient of Synthesis Example 6, from the light absorbance of the compound.

[5] = Phosphate buffered physiological saline (PBS) solution stability test; assay type: physicochemical; settings: PBS, 37° C., after 6.5 hours, HPLC
Description: 0.148 mL of the doxorubicin-bonded glutamic acid derivative PBS solution was dissolved in 0.148 mL of a PBS solution, and the solution was allowed to react at 37° C.
PBS (0.100 mL) was added to the EHC-bonded glutamic acid derivative solution (0.100 mL), and the mixture was allowed to react at 37° C. The reaction liquid was analyzed by HPLC, and thereby the residual ratio of the EHC-bonded glutamic acid derivative was determined.
PBS (0.117 mL) was added to the camptothecin-bonded glutamic acid derivative solution (0.117 mL), and the mixture was allowed to react at 37° C. The reaction liquid was analyzed by HPLC, and thereby the residual ratio of the glutamic acid derivative was determined.
The reaction liquid was analyzed by HPLC, and thereby the residual ratio of the EHC-bonded glutamic acid derivative was determined.

[6] = system: human renal cell cancer OS-RC-2 tumors; assay: Test on antitumor effect of Synthesis Example 1, OS-RC-2 tumors; assay type: in vivo, SCID mice; settings: two times at an interval of 14 days
Description: By an operation similar to that of Test Example 12, human renal cell cancer OS-RC-2 tumors were subcutaneously transplanted into SCID mice, and tumor engraftment was confirmed.
After the administration, the major axis (L) and the minor axis (W) of a tumor were measured using calipers at an interval of 2 to 3 days, the tumor volume was calculated by the formula: (L×W^2)/2, and the tumor volume change rate from the administration initiation day was determined.

In the case of `COc1cccc2c1C(=O)c1c(O)c3c(c(O)c1C2=O)C[C@@](O)(C(=O)CO)CC3OC1CC(NC(=O)OCc2ccc(NC(=O)CCC(N)C(=O)O)cc2)C(O)C(C)O1` (stereo partly drawn) [Synthesis Example 1, (((4-((S)-4-amino-4-carboxybutanamide)benzyl)oxy)carbonyl)doxorubicin], the inhibition at 10 µM [1] is reported as 76%, the Unchanged drug concentration ([2]; Blood plasma) is reported as 9.36 μg/mL or g and the Unchanged drug concentration ([2]; Bone marrow) is reported as 0.336 μg/mL or g. The Unchanged drug concentration ([2]; Heart) was 1.63 μg/mL or g, the Unchanged drug concentration ([2]; Liver) was 60.6 μg/mL or g and the Unchanged drug concentration ([2]; Tumor) was 0.192 μg/mL or g. The “Concentration of doxorubicin produced, compared to doxorubicin hydrochloride” value ([2]; blood plasma, liver, bone marrow, and heart (GGT expressed at a low level)) was “low”, the “Concentration of doxorubicin produced, compared to doxorubicin hydrochloride” value ([2]; tumor (GGT expressed at a high level)) was “high” and the Doxorubicin production rate ([3]; reaction time 0 hr) was 0%. For the same molecule, the “Residual ratio of unchanged drug” value ([3]; reaction time 0 hr) was 100%, the Doxorubicin production rate ([3]; reaction time 1 hr) was 49% and the “Residual ratio of unchanged drug” value ([3]; reaction time 1 hr) was 39%. The Doxorubicin production rate ([3]; reaction time 6.5 hr) was 98%, the “Residual ratio of unchanged drug” value ([3]; reaction time 6.5 hr) was 1% and the “Effect of GGT inhibitor on cell proliferation suppressive activity” value [4] was “completely inhibited the activity”. For the same molecule, the “Stability in PBS solution (release of doxorubicin)” value [5] was “did not release doxorubicin in a PBS solution and was chemically stable”, the “Antitumor effect (relative tumor volume) versus control drug” value ([6]; 20 mg/kg-administered group, i.v.) was “antitumor effect that was equal to the effect of the doxorubicin hydrochloride-administered group (5 mg/kg)” and the “Antitumor effect (relative tumor volume)” value ([6]; 5 or 20 mg/kg i.v.) was “dose-dependent antitumor effect”.
